Data taken from paper PMC5354820, “Novel PARP1/2 inhibitor mefuparib hydrochloride elicits potent in vitro and in vivo anticancer activity, characteristic of high tissue distribution” (Oncotarget, 2016).
Read-outs that look alike come from different tables or passages of the source.

Assays:
TNKS2 = TNKS2 (Homo sapiens, UniProt Q9H2K2); experiment: biotinylated NAD+-based luminescence assay, TNKS2; format: biochemical
[1] = Metabolic stability in rat liver microsomes; format: in vitro ADME; conditions: 3.0 μM MPH
Experimental: Following the incubation at 37°C for the indicated time (for the metabolic stability analysis) or 60 min (for the metabolite profile analysis), reactions were terminated by addition of 100 μl ice-cold acetonitrile.

PARP1 = PARP1 (Homo sapiens, UniProt P09874); experiment: PARP1-catalyzed PAR formation in a cell-free system by Western blotting; format: biochemical
V79 cells = experiment: Proliferative inhibition assay, V79; format: cell-based, Chinese hamster; conditions: Cricetulus griseus, 72 h; V79, BRCA2+/+; 3 days, CCK8; read-out: IC50 (mean ± SD)
Experimental: (§1) Cells cultured in 96-well plates were treated with PARP inhibitors alone or in combination with the indicated anticancer drugs for 3 days (Chinese hamster cells and Ewing sarcoma cells) or 7 days (all the other cells). Then the cells were subjected to the Cell Counting Kit 8 (CCK8) assays (Chinese hamster cells, Ewing sarcoma cells, HCC1937 and MDA-MB-436 cells) or by Sulforhodamine B (SRB) assays (all the other cells) as described previously [18, 19]. […] The averaged IC50 values (mean ± SD) were determined with the Logit method from three independent tests.

[2] = Pharmacokinetics in SD rats; format: in vivo; conditions: rat, plasma; for MRT inf: read-out: MRT0-∞
Description: SD rats and cynomolgus monkeys were used to do the in vivo pharmacokinetic studies.

Capan-1 cells = experiment: Proliferative inhibition assay, Capan-1; format: cell-based; conditions: Homo sapiens, 168 h; Capan-1, BRCA2−/−; 7 days, SRB; read-out: IC50 (mean ± SD)
Experimental: as §1

[3] = Tissue distribution in rats; format: in vivo; conditions: 20 mg/kg oral
V-C8 cells = experiment: Proliferative inhibition assay, V-C8; format: cell-based, Chinese hamster
Experimental: as §1

γH2AX in V-C8 cells = experiment: γH2AX accumulation in cultured V-C8 cells; format: cell-based, Chinese hamster; conditions: V-C8 (BRCA2−/−), concentration-dependent
UWB1.289 cells = experiment: Proliferative inhibition assay, UWB1.289; format: cell-based; conditions: Homo sapiens, UWB1289, 168 h; UWB1.289, BRCA1−/−; 7 days, SRB; read-out: IC50 (mean ± SD)
Experimental: as §1

[4] = SD, iv, rats, i.v. bolus 5 mg/kg
[5] = Sprague-Dawley (SD), rats, oral 10 mg/kg

Sequence of PARP1 (P09874 whole entry): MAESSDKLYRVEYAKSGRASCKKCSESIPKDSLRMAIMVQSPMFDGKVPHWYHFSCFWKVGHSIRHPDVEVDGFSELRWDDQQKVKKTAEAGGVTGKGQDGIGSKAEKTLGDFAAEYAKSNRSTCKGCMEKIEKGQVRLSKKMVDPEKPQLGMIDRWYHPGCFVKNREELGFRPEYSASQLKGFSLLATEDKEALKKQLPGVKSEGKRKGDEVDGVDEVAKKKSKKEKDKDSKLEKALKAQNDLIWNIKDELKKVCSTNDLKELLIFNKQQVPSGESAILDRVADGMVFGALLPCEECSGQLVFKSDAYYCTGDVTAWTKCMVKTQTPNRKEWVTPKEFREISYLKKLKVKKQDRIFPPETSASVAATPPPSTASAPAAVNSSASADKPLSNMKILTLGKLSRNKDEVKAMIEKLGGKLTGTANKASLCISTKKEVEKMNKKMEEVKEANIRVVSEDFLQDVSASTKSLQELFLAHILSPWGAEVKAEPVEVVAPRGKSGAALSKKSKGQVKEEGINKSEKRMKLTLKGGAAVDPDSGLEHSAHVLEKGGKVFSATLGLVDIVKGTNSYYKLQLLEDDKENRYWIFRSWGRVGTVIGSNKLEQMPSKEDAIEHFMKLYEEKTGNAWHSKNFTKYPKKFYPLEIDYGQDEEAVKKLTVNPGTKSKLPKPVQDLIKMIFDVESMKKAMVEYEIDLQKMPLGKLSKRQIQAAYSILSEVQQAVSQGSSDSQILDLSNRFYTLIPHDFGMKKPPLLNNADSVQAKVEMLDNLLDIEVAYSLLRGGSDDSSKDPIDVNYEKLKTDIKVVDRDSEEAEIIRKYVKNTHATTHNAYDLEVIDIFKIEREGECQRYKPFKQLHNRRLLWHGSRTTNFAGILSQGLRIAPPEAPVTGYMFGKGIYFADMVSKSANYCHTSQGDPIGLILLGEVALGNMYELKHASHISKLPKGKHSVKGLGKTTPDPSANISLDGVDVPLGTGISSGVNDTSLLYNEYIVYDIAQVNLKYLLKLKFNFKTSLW
Sequence of TNKS2 (Q9H2K2 whole entry): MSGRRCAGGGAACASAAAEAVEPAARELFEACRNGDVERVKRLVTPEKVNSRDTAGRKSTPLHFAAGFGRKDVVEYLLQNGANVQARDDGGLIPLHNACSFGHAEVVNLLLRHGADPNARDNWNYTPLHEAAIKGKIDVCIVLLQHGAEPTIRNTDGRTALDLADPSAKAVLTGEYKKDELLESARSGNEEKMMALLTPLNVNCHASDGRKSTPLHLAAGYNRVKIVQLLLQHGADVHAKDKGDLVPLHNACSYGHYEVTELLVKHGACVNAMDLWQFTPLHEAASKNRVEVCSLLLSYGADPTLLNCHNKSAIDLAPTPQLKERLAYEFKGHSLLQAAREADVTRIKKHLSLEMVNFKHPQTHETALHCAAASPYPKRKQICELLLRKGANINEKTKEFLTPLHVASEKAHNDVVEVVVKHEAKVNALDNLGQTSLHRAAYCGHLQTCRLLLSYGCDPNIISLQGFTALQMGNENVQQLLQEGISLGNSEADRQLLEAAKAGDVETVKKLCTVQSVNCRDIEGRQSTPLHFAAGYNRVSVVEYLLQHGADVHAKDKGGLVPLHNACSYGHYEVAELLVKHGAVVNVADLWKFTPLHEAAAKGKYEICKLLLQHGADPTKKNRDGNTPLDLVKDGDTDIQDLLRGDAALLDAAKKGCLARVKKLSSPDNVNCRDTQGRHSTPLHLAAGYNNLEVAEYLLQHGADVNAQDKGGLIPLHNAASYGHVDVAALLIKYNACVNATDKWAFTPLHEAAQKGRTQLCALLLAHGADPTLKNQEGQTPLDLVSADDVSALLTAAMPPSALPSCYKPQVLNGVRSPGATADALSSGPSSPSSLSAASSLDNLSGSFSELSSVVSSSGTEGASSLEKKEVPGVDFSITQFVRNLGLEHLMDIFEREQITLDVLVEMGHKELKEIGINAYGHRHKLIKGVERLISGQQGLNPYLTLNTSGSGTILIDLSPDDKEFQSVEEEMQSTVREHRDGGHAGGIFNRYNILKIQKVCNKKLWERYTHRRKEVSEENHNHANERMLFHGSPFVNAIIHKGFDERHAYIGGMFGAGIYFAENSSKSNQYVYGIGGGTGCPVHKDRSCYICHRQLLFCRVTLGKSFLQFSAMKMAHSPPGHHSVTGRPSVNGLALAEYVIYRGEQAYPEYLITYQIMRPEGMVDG

In the case of `CNCc1ccc(-c2cc3cc(F)cc(C(N)=O)c3o2)cc1` [MPH, 5-fluoro-2-(4-((methylamino)methyl)phenyl)benzofuran-7-carboxamide], the IC50 (TNKS2) is reported as 1300 nM, the “remaining amount after 60-min incubation” value [1] is reported as 46.3% and the “PAR formation in a cell-free system” value (PARP1) is reported as “reduced the formation of the resulting PAR”. It also gave an IC50 (V79 cells) of 25300 ± 1680 nM, an AUC(0-inf) [2, 4] of 487 ± 36 ng·h/mL and an AUC(0-t) [2, 4] of 449 ± 49 ng·h/mL. The clearance [2, 4] was 153 mL/min/kg, the MRT inf [2, 4] was 1.55 ± 0.04 h and the half-life ([2]; SD, iv, rats, i.v. bolus 5 mg/kg, read-out: t1/2 (converted)) was 1.25 ± 0.07 h. For the same compound, the bioavailability ([2]; SD, po, 20 mg/kg, rats, oral 20 mg/kg, read-out: F) was 91%, the bioavailability ([2]; SD, po, 40 mg/kg, rats, oral 40 mg/kg, read-out: F) was 112% and the AUC(0-inf) ([2]; SD, rats, oral 20 mg/kg) was 1670 ± 639 ng·h/mL. The MRT inf ([2]; SD, rats, oral 20 mg/kg) was 3.54 ± 0.5 h, the half-life ([2]; SD, rats, oral 20 mg/kg, read-out: t1/2 (converted)) was 1.15 ± 0.13 h and the AUC(0-inf) ([2]; SD, rats, oral 40 mg/kg) was 4040 ± 1620 ng·h/mL. It also gave an AUC(0-t) ([2]; SD, rats, oral 40 mg/kg) of 4010 ± 1620 ng·h/mL, a Cmax ([2]; SD, rats, oral 40 mg/kg, read-out: Cmax) of 725 ± 296 ng/mL and an MRT inf ([2]; SD, rats, oral 40 mg/kg) of 4.28 ± 0.39 h. For the same compound, the Tmax ([2]; SD, rats, oral 40 mg/kg, read-out: Tmax) was 2.5 h, the half-life ([2]; SD, rats, oral 40 mg/kg, read-out: t1/2 (converted)) was 1.3 ± 0.24 h and the bioavailability ([2]; Sprague-Dawley (SD), po, 10 mg/kg, rats, oral 10 mg/kg, read-out: F) was 46.4%. For the same compound, the AUC(0-inf) [2, 5] was 430 ± 121 ng·h/mL, the AUC(0-t) [2, 5] was 416 ± 123 ng·h/mL and the Cmax ([2]; Sprague-Dawley (SD), rats, oral 10 mg/kg, read-out: Cmax) was 116 ± 39 ng/mL. The MRT inf [2, 5] was 3.16 ± 0.54 h, the Tmax ([2]; Sprague-Dawley (SD), rats, oral 10 mg/kg, read-out: Tmax) was 3 h and the half-life ([2]; Sprague-Dawley (SD), rats, oral 10 mg/kg, read-out: t1/2 (converted)) was 1.07 ± 0.15 h. It also gave an AUC(0-t) ([2]; Sprague-Dawley (SD), rats, oral 20 mg/kg) of 1630 ± 643 ng·h/mL, a Cmax ([2]; Sprague-Dawley (SD), rats, oral 20 mg/kg, read-out: Cmax) of 368 ± 157 ng/mL and a Tmax ([2]; Sprague-Dawley (SD), rats, oral 20 mg/kg, read-out: Tmax) of 3.5 h. For the same compound, the Cmax ([2]; Sprague-Dawley, oral doses of 20 mg/kg or above, read-out: plasma Cmax) was > 1000 nM, the Tmax ([2]; Sprague-Dawley, single-dose oral, different doses, read-out: average plasma Tmax) was 2 to 4 h and the Vd ([2]; Sprague-Dawley, iv, rats, i.v. bolus 5 mg/kg, read-out: Vss) was 14.2 ± 1.1 L/kg. The bioavailability ([2]; Sprague-Dawley, po, rats, oral, over the doses, read-out: bioavailability) was 40 to 100%, the half-life ([2]; Sprague-Dawley, po, rats, read-out: average t1/2 (converted)) was 1.2 h and the IC50 (Capan-1 cells) was 2350 ± 160 nM. For the same compound, the “entry into the brain” value [3] was “easily enters into the brain tissue through the blood-brain barrier”, the “concentration in brain compared with the plasma” value ([3]; 3 h) was 10 fold and the “concentration in colon higher than in the plasma” value ([3]; 3 h) was 18 times. The “concentration in fat tissue compared with the plasma” value ([3]; 3 h) was 7 fold, the “concentration in lung compared with the plasma” value ([3]; 3 h) was 188 fold and the “concentration in ovary higher than in the plasma” value ([3]; 3 h) was 35 times. The “concentration in pancreas higher than in the plasma” value ([3]; 3 h) was 33 times, the “concentration in uterus higher than in the plasma” value ([3]; 3 h) was 19 times and the “average concentration in tissues higher than in the plasma” value ([3]; 3 h, 18 tissues) was 33 fold. For the same compound, the Tmax ([3]; Sprague-Dawley, rat, tissues) was 3 h, the IC50 (V-C8 cells; Cricetulus griseus, 72 h, V-C8, BRCA2−/−, 3 days, CCK8, read-out: IC50 (mean ± SD)) was 540 ± 180 nM and the “cell killing in V-C8 more potent than in V79” value (V-C8 cells; V-C8 (BRCA2−/−) versus V79) was 46.85 fold. For the same compound, the “cell killing in V-C8 more potent than in V-C8+H13” value (V-C8 cells; V-C8 (BRCA2−/−) versus V-C8+H13) was 97.56 fold, the “γH2AX levels (DSB accumulation)” value (γH2AX in V-C8 cells) was “increased levels of γH2AX” and the IC50 (UWB1.289 cells) was 1730 ± 250 nM.
